These results are taken from patent US20140171516A1, “GERANYLGERANYLACETONE FORMULATIONS” (COYOTE PHARMACEUTICALS, INC., priority 2012, published 2014).

Each structure is given as a SMILES string. Like-named read-outs stand apart in the source and are kept apart here.

A short description of data set [1]: Intraocular GGA level, topical ocular versus oral systemic administration. Type of data set: in vivo. As to conditions: topical ocular composition of 5% GGA versus 200 mg/kg GGA by systemic administration orally.
Data set [2] can be described thus: Rat ocular pharmacokinetics study, Cohort 1: geranylgeranyl acetone concentration in eyes after topical eye drops. Type of data set: in vivo. To be noted: Sprague-Dawley, 0.25 mg/eye, 8 doses, average of 3 rats.

On to `CC(=O)CCC=C(C)CC/C=C(\C)CC/C=C(\C)CCC=C(C)C` (mixture of isomers) [GGA, Geranylgeranyl acetone], for which the “levels of geranylgeranyl acetone achieved intraocularly, topical versus oral” value in data set [1] is recorded as “about 5 fold”.
Consider `CC(=O)CC/C=C(\C)CC/C=C(\C)CC/C=C(\C)CCC=C(C)C` [CNS-102, all-trans geranylgeranyl acetone], for which the concentration at 8 h was determined as 2100 ng/g in data set [2] (contralateral eye, contralateral eye concentration (ng/g in Table 7), read-out: 8 h contra AVE) and 8770 ng/g in data set [2] (treated (ipsilateral) eye, treated eye concentration (ng/g in Table 7), read-out: 8 h ispi AVE).
